Measurements: paper PMC5874719, “A π-Halogen Bond of Dibenzofuranones with the Gatekeeper Phe113 in Human Protein Kinase CK2 Leads to Potent Tight Binding Inhibitors” (Pharmaceuticals, 2018)
pIC50, pKi: −log10 of the molar value. Like-named read-outs stand apart in the source and are kept apart here.

Experiments:
FLT3 (D835Y) = molecular target: T1, FLT3 (D835Y) (Homo sapiens, UniProt P36888, D835Y); assay: kinase selectivity profile; format: biochemical; conditions: 10 µM inhibitor, 10 µM ATP
T1 construct: purchased Reaction Biology Corp
Excerpt: (§1) This demands further investigation.

[1] = tested on: panel of 61 human protein kinases; assay: kinase selectivity profile, whole panel; format: biochemical; conditions: 10 µM inhibitor, 10 µM ATP
Excerpt: as §1

[2] = molecular target: T2, surface displayed CK2α’ + CK2β (CK2α’ containing human CK2 holoenzyme) (Homo sapiens, UniProt P19784); assay: whole-cell CK2 selectivity assay, holoenzyme surface displayed on E. coli; format: biochemical; conditions: for pIC50: CK2α’ + CK2β displayed on E. coli, 600 µM ATP, 100 µM substrate peptide; for factor of stronger inhibition of CK2α’ containing holoenzyme in comparison to CK2α containing holoenzyme: whole-cell assay, not statistically significant
T2 construct: surface-display (autodisplay) carrier protein; made in house; host or cells: Escherichia coli BL21 (DE3), enzyme left on the cell surface
T2 sequence (P19784 whole entry): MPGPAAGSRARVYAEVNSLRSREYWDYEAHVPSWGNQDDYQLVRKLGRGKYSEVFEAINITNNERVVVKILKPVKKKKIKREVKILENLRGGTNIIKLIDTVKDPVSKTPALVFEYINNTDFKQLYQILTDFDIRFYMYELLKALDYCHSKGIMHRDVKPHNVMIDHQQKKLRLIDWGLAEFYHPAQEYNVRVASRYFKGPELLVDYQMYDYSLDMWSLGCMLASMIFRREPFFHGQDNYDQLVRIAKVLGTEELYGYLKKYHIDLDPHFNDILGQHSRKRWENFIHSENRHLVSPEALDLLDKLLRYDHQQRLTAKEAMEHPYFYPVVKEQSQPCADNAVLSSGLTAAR
T2 sequence (P67870 whole entry partner): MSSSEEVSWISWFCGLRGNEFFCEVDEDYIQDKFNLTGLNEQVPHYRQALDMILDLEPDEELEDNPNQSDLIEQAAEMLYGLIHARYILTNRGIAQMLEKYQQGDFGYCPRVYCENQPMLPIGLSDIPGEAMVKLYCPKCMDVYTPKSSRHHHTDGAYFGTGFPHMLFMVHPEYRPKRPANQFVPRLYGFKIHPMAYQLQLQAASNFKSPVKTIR
Excerpt: We recently reported a whole cell CK2 activity assay, which can be used for testing the selectivity of compounds towards CK2α and CK2α’ [47]. It is based on the surface display of the human CK2 subunits, either α or α’ together with β on E. coli, were they are able to form a functional tetrameric holoenzymes, either ααββ or α’α’ββ, depending on which α isoform has been expressed. This technique was used to investigate whether 4a or 5 have preference to one of the two catalytic isoforms of CK2.
For this purpose, their IC50 were determined following the protocol of the recently described whole-cell CK2 selectivity assay. In summary, 78 µL of a bacterial suspension of Escherichia coli BL21 (DE3) either surface displaying CK2α + CK2β or CK2α’ + CK2β in kinase buffer (50 mM Tris/HCl, pH 8.5, 100 mM NaCl, 10 mM MgCl2 and 1 mM DTT) were supplemented with 2 µL of the test compound dissolved in DMSO and incubated at 37 °C and 400 rpm for 10 min. CK2 reactions were started by the addition of 120 µL of assay buffer (25 mM Tris/HCl, pH 7.5, 150 mM NaCl, 5 mM MgCl2, 1 mM DTT, 167 µM substrate peptide […] and 1 mM ATP) leading to a total reaction volume of 200 µL with final concentrations of 100 µM for the substrate peptide and 600 µM for ATP. […] After the samples were incubated for 120 min at 37 °C and 400 rpm, the CK2 presenting bacteria were removed by centrifugation (3850× g, 5 min, 4 °C). The obtained supernatants were transferred to the wells of a 96 well-microplate and finally supplemented with EDTA to a concentration of 12.5 mM to definitely stop the enzymatic reactions. The samples were then subjected to a Beckman Coulter pa800 plus (Krefeld, Germany) CE system and analyzed for phosphorylation of the substrate peptide. Samples containing pure DMSO served as controls for 0% inhibition and samples additionally lacking ATP served as controls for 100% inhibition. […] IC50 values were calculated from the resulting dose-response curves.
CK2α’ + CK2β (right column).
Mean values ± standard errors of
the means (SEM) are shown. […]

C-Met = C-Met (Homo sapiens, UniProt P08581); conditions: 10 µM inhibitor, 10 µM ATP
Description: (§2) For this purpose 61 kinases from different representative subgroups (and CK2α and CK2α’) were tested. Testing was performed with inhibitor concentrations of 10 µM and an ATP concentration of 10 μM. The residual enzyme activity as obtained was set in relation to a control without inhibitor.

FLT4/VEGFR3 [3] = molecular target: T3, FLT4/VEGFR3 (Homo sapiens, UniProt P35916); conditions: 10 µM inhibitor, 10 µM ATP
T3 sequence (P35916 25-1363): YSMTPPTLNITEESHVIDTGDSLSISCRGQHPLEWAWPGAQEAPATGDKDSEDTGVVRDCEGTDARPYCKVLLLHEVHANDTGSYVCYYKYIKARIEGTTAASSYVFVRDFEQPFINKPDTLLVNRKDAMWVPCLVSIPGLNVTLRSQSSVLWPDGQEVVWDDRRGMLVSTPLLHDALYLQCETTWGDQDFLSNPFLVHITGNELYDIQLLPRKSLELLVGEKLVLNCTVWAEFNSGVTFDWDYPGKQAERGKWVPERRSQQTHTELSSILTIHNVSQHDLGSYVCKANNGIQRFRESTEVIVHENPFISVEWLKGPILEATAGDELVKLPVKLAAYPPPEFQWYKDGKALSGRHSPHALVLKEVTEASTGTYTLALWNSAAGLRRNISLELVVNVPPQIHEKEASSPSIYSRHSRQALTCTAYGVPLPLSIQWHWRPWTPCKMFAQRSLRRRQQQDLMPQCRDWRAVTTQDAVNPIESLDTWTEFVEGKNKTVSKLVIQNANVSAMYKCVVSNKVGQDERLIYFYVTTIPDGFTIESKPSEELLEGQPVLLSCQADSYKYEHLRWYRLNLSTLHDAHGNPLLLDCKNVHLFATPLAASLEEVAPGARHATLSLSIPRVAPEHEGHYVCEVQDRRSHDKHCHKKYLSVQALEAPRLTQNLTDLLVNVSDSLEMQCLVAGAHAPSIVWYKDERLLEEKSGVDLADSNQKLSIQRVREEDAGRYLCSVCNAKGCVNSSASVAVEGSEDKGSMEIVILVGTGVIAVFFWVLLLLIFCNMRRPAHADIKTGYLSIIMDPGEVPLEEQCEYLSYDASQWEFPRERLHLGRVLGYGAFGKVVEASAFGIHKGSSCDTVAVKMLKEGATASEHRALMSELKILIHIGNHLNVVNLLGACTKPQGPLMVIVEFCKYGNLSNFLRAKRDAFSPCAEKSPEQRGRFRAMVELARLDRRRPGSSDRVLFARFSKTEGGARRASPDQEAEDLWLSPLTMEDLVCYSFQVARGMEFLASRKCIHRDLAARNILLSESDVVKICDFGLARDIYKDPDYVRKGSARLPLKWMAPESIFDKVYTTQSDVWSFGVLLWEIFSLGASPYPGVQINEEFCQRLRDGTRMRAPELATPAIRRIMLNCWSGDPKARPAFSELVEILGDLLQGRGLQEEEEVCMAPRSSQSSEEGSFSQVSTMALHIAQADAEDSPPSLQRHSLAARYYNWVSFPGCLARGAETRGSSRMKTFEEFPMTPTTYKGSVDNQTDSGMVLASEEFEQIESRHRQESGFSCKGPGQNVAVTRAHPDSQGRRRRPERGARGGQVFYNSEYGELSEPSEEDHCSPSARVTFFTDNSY
Description: as §2

KDR/VEGFR2 [4] = molecular target: T4, KDR/VEGFR2 (Homo sapiens, UniProt P35968); conditions: 10 µM inhibitor, 10 µM ATP
T4 sequence (P35968 20-1356): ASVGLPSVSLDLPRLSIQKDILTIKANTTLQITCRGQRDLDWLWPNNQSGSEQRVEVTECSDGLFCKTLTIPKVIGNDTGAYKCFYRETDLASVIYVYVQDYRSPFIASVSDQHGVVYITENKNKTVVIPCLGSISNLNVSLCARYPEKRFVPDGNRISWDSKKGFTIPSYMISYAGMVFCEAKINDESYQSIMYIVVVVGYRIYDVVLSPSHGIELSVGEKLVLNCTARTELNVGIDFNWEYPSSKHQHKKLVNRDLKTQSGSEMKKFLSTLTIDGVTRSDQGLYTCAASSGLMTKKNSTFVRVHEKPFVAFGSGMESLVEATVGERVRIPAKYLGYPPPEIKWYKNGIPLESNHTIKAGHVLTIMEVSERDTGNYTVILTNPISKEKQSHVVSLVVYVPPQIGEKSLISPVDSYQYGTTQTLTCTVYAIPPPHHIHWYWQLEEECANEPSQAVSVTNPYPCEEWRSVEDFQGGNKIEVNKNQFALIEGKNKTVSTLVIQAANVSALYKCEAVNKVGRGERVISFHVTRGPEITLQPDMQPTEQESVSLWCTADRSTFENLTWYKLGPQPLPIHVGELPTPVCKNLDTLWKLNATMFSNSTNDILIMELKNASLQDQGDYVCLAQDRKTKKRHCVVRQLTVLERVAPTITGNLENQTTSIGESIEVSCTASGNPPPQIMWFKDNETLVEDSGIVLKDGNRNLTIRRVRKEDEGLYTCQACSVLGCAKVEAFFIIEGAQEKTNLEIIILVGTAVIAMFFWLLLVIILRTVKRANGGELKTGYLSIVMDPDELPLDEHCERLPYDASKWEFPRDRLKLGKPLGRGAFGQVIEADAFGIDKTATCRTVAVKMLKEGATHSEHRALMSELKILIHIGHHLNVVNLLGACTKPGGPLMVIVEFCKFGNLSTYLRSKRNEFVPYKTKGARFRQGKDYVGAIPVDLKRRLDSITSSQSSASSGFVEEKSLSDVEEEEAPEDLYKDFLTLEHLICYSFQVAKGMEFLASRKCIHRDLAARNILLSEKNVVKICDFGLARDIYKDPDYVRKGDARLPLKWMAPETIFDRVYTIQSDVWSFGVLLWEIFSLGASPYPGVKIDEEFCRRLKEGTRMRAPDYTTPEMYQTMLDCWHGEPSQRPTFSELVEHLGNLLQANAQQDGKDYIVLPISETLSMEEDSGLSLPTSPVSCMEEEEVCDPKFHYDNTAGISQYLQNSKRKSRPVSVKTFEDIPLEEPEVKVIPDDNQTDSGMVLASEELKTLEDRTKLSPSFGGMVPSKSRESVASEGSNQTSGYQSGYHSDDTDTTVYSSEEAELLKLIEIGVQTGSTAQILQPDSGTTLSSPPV
Description: as §2

PIM1 [5] = molecular target: T5, PIM1 (Homo sapiens, UniProt P11309); conditions: 10 µM inhibitor, 10 µM ATP
T5 sequence (P11309 whole entry): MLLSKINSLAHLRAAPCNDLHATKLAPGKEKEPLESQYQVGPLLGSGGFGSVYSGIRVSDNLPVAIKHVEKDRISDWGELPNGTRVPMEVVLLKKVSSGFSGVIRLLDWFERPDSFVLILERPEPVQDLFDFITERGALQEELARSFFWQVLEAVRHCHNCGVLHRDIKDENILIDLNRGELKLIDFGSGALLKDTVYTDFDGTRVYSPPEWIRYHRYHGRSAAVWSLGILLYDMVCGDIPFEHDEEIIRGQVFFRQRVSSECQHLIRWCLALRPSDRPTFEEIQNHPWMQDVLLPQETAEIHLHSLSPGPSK
Description: as §2

PKA = PKA (Homo sapiens, UniProt P17612); conditions: 10 µM inhibitor, 10 µM ATP
Description: as §2

LCK [6] = molecular target: T6, LCK (Homo sapiens, UniProt P06239); assay: biochemical
T6 sequence (P06239 whole entry): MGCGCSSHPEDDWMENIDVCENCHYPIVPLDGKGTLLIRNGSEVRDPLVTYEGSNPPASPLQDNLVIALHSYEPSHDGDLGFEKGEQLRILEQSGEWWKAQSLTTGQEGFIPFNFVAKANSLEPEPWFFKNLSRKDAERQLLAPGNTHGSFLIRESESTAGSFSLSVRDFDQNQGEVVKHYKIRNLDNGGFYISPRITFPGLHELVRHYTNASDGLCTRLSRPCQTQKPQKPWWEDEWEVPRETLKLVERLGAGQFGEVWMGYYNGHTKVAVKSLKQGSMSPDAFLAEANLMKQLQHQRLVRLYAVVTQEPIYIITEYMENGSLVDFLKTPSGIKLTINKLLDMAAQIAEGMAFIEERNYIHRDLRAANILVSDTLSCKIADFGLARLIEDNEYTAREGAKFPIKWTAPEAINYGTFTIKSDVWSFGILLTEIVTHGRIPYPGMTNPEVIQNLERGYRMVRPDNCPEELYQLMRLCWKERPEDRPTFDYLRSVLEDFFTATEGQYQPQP
Description: as §2

CK2α = conditions: towards CK2α, radiometric assay; cited from earlier work
[7] = molecular target: T7, human protein kinase CK2 holoenzyme (CK2α2β2) (Homo sapiens, UniProt P68400); design: method as in PMID 22387500; conditions: cited from earlier work
T7 construct: made in house
T7 sequence (P68400 whole entry): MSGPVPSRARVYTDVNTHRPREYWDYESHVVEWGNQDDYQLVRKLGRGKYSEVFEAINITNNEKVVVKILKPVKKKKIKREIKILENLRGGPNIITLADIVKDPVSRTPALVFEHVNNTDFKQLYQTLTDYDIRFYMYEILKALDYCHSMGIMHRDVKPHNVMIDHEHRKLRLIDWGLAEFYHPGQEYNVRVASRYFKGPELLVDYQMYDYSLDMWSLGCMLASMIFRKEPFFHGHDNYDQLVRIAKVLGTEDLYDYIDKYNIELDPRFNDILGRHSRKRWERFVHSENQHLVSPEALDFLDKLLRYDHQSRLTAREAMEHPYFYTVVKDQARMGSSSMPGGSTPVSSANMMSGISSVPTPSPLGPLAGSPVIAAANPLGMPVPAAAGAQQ
T7 sequence (P67870 whole entry partner): as the sequence (P67870 whole entry partner) above

Aurora A = molecular target: T8, Aurora A (Homo sapiens, UniProt O14965); design: method as in PMID 22387500; conditions: 10 µM inhibitor; cited from earlier work
T8 construct: purchased Reaction Biology Corp
T8 sequence (O14965 1-403): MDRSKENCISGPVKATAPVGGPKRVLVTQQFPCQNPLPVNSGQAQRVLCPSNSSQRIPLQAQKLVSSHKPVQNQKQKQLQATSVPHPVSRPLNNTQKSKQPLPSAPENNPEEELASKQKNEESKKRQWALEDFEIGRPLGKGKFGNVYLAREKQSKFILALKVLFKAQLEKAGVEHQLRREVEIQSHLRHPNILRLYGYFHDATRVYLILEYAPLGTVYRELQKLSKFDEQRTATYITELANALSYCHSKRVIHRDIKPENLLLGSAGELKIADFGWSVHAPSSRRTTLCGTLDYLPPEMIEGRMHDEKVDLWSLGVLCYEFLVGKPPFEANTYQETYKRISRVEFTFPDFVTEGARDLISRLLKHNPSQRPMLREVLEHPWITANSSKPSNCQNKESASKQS

SKG1 = molecular target: T9, SKG1 (Homo sapiens, UniProt O00141); design: method as in PMID 22387500; conditions: 10 µM inhibitor; cited from earlier work
T9 construct: purchased Reaction Biology Corp

PIM1 [8] = molecular target: T5, PIM1; design: method as in PMID 22387500; conditions: 10 µM inhibitor; cited from earlier work
LCK [9] = molecular target: T6, LCK; design: method as in PMID 22387500; conditions: 10 µM inhibitor; cited from earlier work
PKD/PRKD2 = tested on: PKD/PRKD2; design: method as in PMID 22387500; conditions: 10 µM inhibitor; cited from earlier work
FLT4/VEGFR3 [10] = molecular target: T3, FLT4/VEGFR3; design: purchased Reaction Biology Corp; method as in PMID 22387500; conditions: 10 µM inhibitor; cited from earlier work
KDR/VEGFR2 [11] = molecular target: T4, KDR/VEGFR2; design: purchased Reaction Biology Corp; method as in PMID 22387500; conditions: 10 µM inhibitor; cited from earlier work

In the case of `COc1ccc(N/C=C2\C(=O)CCc3c2oc2cc(Cl)c(O)c(Cl)c32)cc1` [4a, 7,9-dichloro-1,2-dihydro-8-hydroxy-4-[(4-methoxyphenylamino)methylene]dibenzo[b,d]furan-3(2H)-one], the “kinase inhibited more than 70% at 10 µM concentration” value (FLT3 (D835Y)) was “FLT3 (D835Y)”, the “number of kinases out of the 61 kinases inhibited to more than 70%” value [1] was 6 and the pIC50 [2] was 7.37. For the same compound, the “factor of stronger inhibition of CK2α’ containing holoenzyme in comparison to CK2α containing holoenzyme” value [2] was 1.5.
With `COc1ccc(/N=C/c2c(O)ccc3c2oc2cc(Cl)c(O)c(Cl)c23)cc1` [compound 5, (E)-1,3-dichloro-6-[(4-methoxyphenylimino)methyl]dibenzo[b,d]furan-2,7-diol] the “kinase inhibited more than 70% at 10 µM concentration” value (FLT3 (D835Y)) was “FLT3 (D835Y)”, the “kinase inhibited more than 70% at 10 µM concentration” value (C-Met) was “C-Met” and the “kinase inhibited more than 70% at 10 µM concentration” value (FLT4/VEGFR3 [3]) was “FLT4/VEGFR3”. For the same compound, the “kinase inhibited more than 70% at 10 µM concentration” value (KDR/VEGFR2 [4]) was “KDR/VEGFR2”, the “kinase inhibited more than 70% at 10 µM concentration” value (PIM1 [5]) was “PIM1” and the “kinase inhibited more than 70% at 10 µM concentration” value (PKA) was “PKA”. For the same compound, the inhibition at 10 µM (LCK [6]) was 68%, the “number of kinases out of the 61 kinases inhibited to more than 70%” value [1] was 11 and the pIC50 [2] was 7.14. The “factor of stronger inhibition of CK2α’ containing holoenzyme in comparison to CK2α containing holoenzyme” value [2] was 1.5 and the pIC50 (CK2α) was 8.15.
For `Cc1ccc(NC=C2C(=O)CCc3c2oc2c(Cl)c(Cl)c(O)cc32)cc1` [4b, 6,7-dichloro-1,4-dihydro-8-hydroxy-4-[(4-methylphenylamino)methylene]dibenzo[b,d]furan-3(2H)-one], the pKi ([7]; ATP concentrations 6 µM to 400 µM) is given as 7.82, the pIC50 ([7]; earlier work of the authors) is given as 7.54 and the “kinase inhibited more than 70% at 10 µM concentration” value (Aurora A) is given as “Aurora A”. The “kinase inhibited more than 70% at 10 µM concentration” value (SKG1) was “SKG1”, the “kinase inhibited more than 70% at 10 µM concentration” value (PIM1 [8]) was “PIM1” and the “kinase inhibited more than 70% at 10 µM concentration” value (LCK [9]) was “LCK”. The “kinase inhibited more than 70% at 10 µM concentration” value (PKD/PRKD2) was “PKD/PRKD2”, the “kinase inhibited more than 70% at 10 µM concentration” value (FLT4/VEGFR3 [10]) was “FLT4/VEGFR3” and the “kinase inhibited more than 70% at 10 µM concentration” value (KDR/VEGFR2 [11]) was “KDR/VEGFR2”.
